# Experiments:
# σ1R = target: T1, σ1R (Cavia porcellus, UniProt Q60492); assay: σ1R radioligand binding in guinea pig cortex ([3H]-(+)-Pentazocine competition); settings: for σ1/DAT: ratio of σ1 to DAT affinity values; for σ1/SERT: ratio of σ1 to SERT affinity values
# T1 construct: tissue BioReclamation IVT (Hicksville, N.Y.); host or cells: male Hartley guinea pig brain cortex membranes
# Procedure: (§1) Binding affinities of the analogue compounds were evaluated at the DAT and SERT in rat brain membranes, and sigma-1 in guinea pig brain membranes according to the following protocols.
# σ1R Radioligand Binding in Guinea Pig Cortex
# Male Hartley guinea pig cortices were dissected from freshly harvested brains (shipped cold in PBS buffer from BioReclamation IVT (Hicksville, N.Y.)) and frozen at −80° C. for future use. […] The supernatant was collected in a clean tube and the pellet re-suspended in 10 ml of cold buffer and centrifuged again (˜1,200 rpm) for 10 min at 4° C. […] The final pellet was suspended in ice-cold binding buffer at 50 mg/ml concentration. […] All test compounds were freshly dissolved in 30% DMSO and 70% H2O to a stock concentration of 1 mM or 100 μM. When necessary, to assist the solubilization of compounds, 10 μl of glacial acetic acid was added along with the DMSO (in place of 10 μl final H2O volume). Each test compound was then diluted into 10 half-log serial dilutions using 30% DMSO as the vehicle. […] Nonspecific binding was determined using either 10 μM PRE084 or 10 μM (+)-Pentazocine and total binding was determined with 30% DMSO vehicle (3% DMSO final concentration). […] The filters were washed 3 times with 3 ml (3×1 ml/well) of ice cold binding buffer.
# SERT = target: T2, SERT (Rattus norvegicus, UniProt P31652); assay: SERT radioligand binding in rat midbrain ([3H]-Citalopram competition); settings: rat midbrain/brain stem membranes, [3H]-Citalopram, mean ± SEM; read-out: SERT (rat mid-brain-stem) Ki ± SEM
# T2 construct: 100 μl of tissue preparation (2 mg of brain stem membranes per well); tissue Bioreclamation IVT (Hicksville, N.Y.); host or cells: male Sprague-Dawley rat brain stem membranes
# Procedure: as §1
# SERT Radioligand Binding in Rat Midbrain
# (§2) The tissue was centrifuged at 20,000 rpm for 10 min at 4° C. The pellet was suspended in cold buffer and centrifuged again using the same settings. The resulting pellet was resuspended in cold buffer at a concentration of 20 mg/mL OWW (original wet weight). On test day, all test compounds were freshly dissolved in 30% DMSO and 70% H2O to a stock concentration of 1 mM or 100 μM. When necessary, to assist the solubilization of compounds, 10 μl of glacial acetic acid was added along with the DMSO (in place of 10 μl final H2O volume). Each test compound was then diluted into 10 half-log serial dilutions using 30% DMSO vehicle. […] Non-specific binding was determined using 10 μL Fluoxetine HCl and total binding was determined with 30% DMSO vehicle. The reaction was started with the addition of the tissue. All compound dilutions were tested in triplicate and the reaction incubated for 60 min at room temperature. The reaction was terminated by filtration through Perkin Elmer Uni-Filter-96 GF/B, presoaked for 60 min in 0.3% polyethylenimine, using a Brandel 96-Well Plates Harvester Manifold (Brandel Instruments, Gaithersburg, Md.). The filters were washed 3 times with 3 mL (3×1 mL/well) of ice cold binding buffer. […] These analyses were performed using GraphPad Prism version 6.00 for Macintosh (GraphPad Software, San Diego, Calif.).
# DAT = target: T3, DAT (Rattus norvegicus, UniProt P23977); assay: DAT radioligand binding in rat striatum ([3H]-WIN35,428 competition); settings: for Ki: rat striatum membranes, [3H]-WIN35,428, mean ± SEM, read-out: DAT (rat striatum) Ki ± SEM; for SERT/DAT: ratio of SERT Ki to DAT Ki
# T3 construct: 100 μl of tissue preparation (1.5 mg of brain striatum membranes per well); tissue Bioreclamation IVT (Hicksville, N.Y.); host or cells: male Sprague-Dawley rat brain striatum membranes
# Procedure: as §1
# DAT Radioligand Binding in Rat Striatum
# as §2, with “of 15” for “of 20”, “100 μM” for “100 μM.”, “[…] Indatraline” for “μL Fluoxetine HCl”, “tissue. […]” for “tissue. All compound dilutions were tested in triplicate and the reaction incubated for 60 min at room temperature. The reaction was terminated by filtration through Perkin Elmer Uni-Filter-96 GF/B, presoaked for 60 min in 0.3% polyethylenimine, using a Brandel 96-Well Plates Harvester Manifold (Brandel Instruments, Gaithersburg, Md.).”
# [1] = Phase I metabolic stability in rat liver microsomes; format: in vitro ADME; settings: for Phase I in Liver Microsomes, Negative Control: rat liver microsomes lacking NADPH; for Phase I in Liver Microsomes, Rat: with NADPH, 10 μM compound, 0.5 mg/mL microsomes; for stability to Phase I metabolism (in words): rat liver microsomes fortified with NADPH
# Procedure: Methods: Phase I metabolic stability assays were conducted in rat liver microsomes. For phase I metabolism, the reactions were carried out with 100 mM potassium phosphate buffer, pH 7.4, in the presence of NADPH regenerating system (1.3 mM NADPH, 3.3 mM glucose 6-phosphate, 3.3 mM MgCl2, 0.4 U/mL glucose-6-phosphate dehydrogenase, […] sodium citrate). Reactions in triplicate were initiated by addition of the liver microsomes to the incubation mixture (compound final concentration was 10 μM; 0.5 mg/mL microsomes). Compound disappearance was monitored via LC/MS/MS. […] The total run time for each analyte was 5.0 min.
# T3 sequence (P23977 whole entry): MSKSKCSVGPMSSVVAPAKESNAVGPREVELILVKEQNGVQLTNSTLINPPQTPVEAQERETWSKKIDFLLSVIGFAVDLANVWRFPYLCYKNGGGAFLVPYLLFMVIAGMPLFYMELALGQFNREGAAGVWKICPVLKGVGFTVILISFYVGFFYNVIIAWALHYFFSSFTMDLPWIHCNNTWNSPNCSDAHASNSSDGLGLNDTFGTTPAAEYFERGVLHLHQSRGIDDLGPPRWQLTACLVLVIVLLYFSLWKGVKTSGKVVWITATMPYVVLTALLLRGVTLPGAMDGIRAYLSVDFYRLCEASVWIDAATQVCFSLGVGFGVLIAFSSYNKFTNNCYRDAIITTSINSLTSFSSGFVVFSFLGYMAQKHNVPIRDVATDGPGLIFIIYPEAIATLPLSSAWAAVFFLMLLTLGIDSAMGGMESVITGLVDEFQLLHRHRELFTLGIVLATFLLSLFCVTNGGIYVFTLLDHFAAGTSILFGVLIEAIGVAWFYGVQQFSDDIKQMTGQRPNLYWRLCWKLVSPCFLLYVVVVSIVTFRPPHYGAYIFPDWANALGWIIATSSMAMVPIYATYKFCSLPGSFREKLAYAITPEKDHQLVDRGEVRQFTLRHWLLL
# T1 sequence (Q60492 whole entry): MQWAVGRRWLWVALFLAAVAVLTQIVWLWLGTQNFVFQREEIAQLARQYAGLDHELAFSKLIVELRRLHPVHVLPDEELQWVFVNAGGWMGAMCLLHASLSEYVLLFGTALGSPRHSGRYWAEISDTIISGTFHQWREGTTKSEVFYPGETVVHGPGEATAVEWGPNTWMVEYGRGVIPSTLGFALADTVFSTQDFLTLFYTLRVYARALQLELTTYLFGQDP
# T2 sequence (P31652 whole entry): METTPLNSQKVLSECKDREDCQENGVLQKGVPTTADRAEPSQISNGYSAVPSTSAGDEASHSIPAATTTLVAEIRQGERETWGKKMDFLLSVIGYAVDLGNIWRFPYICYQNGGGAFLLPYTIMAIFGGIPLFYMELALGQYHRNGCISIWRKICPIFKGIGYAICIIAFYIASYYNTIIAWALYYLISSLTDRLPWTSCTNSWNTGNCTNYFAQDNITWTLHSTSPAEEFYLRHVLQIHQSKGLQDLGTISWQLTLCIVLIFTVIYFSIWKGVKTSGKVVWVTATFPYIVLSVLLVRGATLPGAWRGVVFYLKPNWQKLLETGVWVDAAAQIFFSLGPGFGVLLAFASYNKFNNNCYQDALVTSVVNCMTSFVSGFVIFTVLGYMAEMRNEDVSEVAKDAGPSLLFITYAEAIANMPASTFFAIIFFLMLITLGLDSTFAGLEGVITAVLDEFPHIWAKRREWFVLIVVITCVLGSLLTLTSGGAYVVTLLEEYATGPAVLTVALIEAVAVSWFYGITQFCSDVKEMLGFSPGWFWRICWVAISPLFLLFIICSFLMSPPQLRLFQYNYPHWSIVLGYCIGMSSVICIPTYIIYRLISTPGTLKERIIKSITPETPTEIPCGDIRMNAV
SMILES,σ1/DAT (σ1R),σ1/SERT (σ1R),Ki (SERT) [nM],Ki (DAT) [nM],SERT/DAT (DAT),"Phase I in Liver Microsomes, Negative Control ([1]; 0 min) [%]","Phase I in Liver Microsomes, Rat ([1]; 0 min) [%]","Phase I in Liver Microsomes, Negative Control ([1]; 30 min) [%]","Phase I in Liver Microsomes, Rat ([1]; 30 min) [%]","Phase I in Liver Microsomes, Negative Control ([1]; 60 min) [%]","Phase I in Liver Microsomes, Rat ([1]; 60 min) [%]",stability to Phase I metabolism (in words) [1]
"C[C@@H]1CN(CCSC(c2ccc(F)cc2)c2ccc(F)cc2)C[C@H](C)N1CC(O)Cc1ccccc1 (stereo partly drawn) [RDS03-095, 1-((2S,6R)-4-(2-((bis(4-fluorophenyl)methyl)thio)ethyl)-2,6-dimethylpiperazin-1-yl)-3-phenylpropan-2-ol]",7.60,0.010,1600 ± 152,2 ± 0.15,800.00,100,100,117,42,125,10,susceptibility
OC(CN1CCC2(CCN(CCSC(c3ccc(F)cc3)c3ccc(F)cc3)CC2)C1)c1ccccc1 (stereo not shown) [RDS04-002],0.36,0.37,124 ± 38.2,125 ± 9.7,0.99,100,100,128,100,125,100,–
"CC(O)CN1[C@H](C)CN(CC[S+]([O-])C(c2ccc(F)cc2)c2ccc(F)cc2)C[C@@H]1C (stereo partly drawn) [RDS04-010, 1-((2S,6R)-4-(2-((Bis(4-fluorophenyl)methyl)sulfinyl)ethyl)-2,6-dimethylpiperazin-1-yl)propan-2-ol]",1.29,0.017,19000 ± 2550,245 ± 49.7,77.55,100,100,130,115,108,95,–
"C[C@@H]1CN(CC[S+]([O-])C(c2ccc(F)cc2)c2ccc(F)cc2)C[C@H](C)N1CC(O)Cc1ccccc1 (stereo partly drawn) [RDS04-011, 1-((2S,6R)-4-(2-((Bis(4-fluorophenyl)methyl)sulfinyl)ethyl)-2,6-dimethylpiperazin-1-yl)-3-phenylpropan-2-ol]",11.12,0.029,2560 ± 181,6.78 ± 2.97,377.58,100,100,132,58,106,26,susceptibility

# — US11365195B2, “Atypical inhibitors of monoamine transporters; method of making; and use thereof” (THE UNITED STATES OF AMERICA, AS REPRESENTED BY THE …, priority 2017, dated 2022)
